Experimental data published in PubChem BioAssay (NCI).
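Following 48 hours of exposure in 96-well plates, responses at five concentrations were used to interpolate endpoints linearly. Definition used: TGI = concentration required for complete inhibition of growth.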

Legend:
Test in all cases: inhibition of tumour cell growth, NCI panel, 48 h
786-0 renal = system: 786-0 renal
RPMI-8226 leukemia = system: RPMI-8226 leukemia
MDA-N = system: MDA-N
SK-OV-3 ovarian = system: SK-OV-3 ovarian
MALME-3M melanoma = system: MALME-3M melanoma
CAKI-1 renal = system: CAKI-1 renal
IGROV1 ovarian = system: IGROV1 ovarian
OVCAR-8 ovarian = system: OVCAR-8 ovarian
UO-31 renal = system: UO-31 renal
COLO 205 colon = system: COLO 205 colon
NCI/ADR-RES ovarian = system: NCI/ADR-RES ovarian
SF-295 CNS = system: SF-295 CNS
DU-145 prostate = system: DU-145 prostate
PC-3 prostate = system: PC-3 prostate
BT-549 breast = system: BT-549 breast
MDA-MB-435 = system: MDA-MB-435
EKVX NSCLC = system: EKVX NSCLC
SR leukemia = system: SR leukemia
SNB-19 CNS = system: SNB-19 CNS
SK-MEL-5 melanoma = system: SK-MEL-5 melanoma
SW-620 colon = system: SW-620 colon
UACC-62 melanoma = system: UACC-62 melanoma
SF-268 CNS = system: SF-268 CNS
U251 CNS = system: U251 CNS
ACHN renal = system: ACHN renal
SK-MEL-28 melanoma = system: SK-MEL-28 melanoma
M14 melanoma = system: M14 melanoma
SNB-75 CNS = system: SNB-75 CNS
NCI-H522 lung = system: NCI-H522 lung
HCC-2998 colon = system: HCC-2998 colon
HCT-116 colon = system: HCT-116 colon
A549 NSCLC = system: A549 NSCLC
HOP-92 NSCLC = system: HOP-92 NSCLC
MDA-MB-231 breast = system: MDA-MB-231 breast
T-47D breast = system: T-47D breast
SN12C renal = system: SN12C renal
OVCAR-3 ovarian = system: OVCAR-3 ovarian
HT29 colon = system: HT29 colon
RXF 393 renal = system: RXF 393 renal
SK-MEL-2 melanoma = system: SK-MEL-2 melanoma
CCRF-CEM leukemia = system: CCRF-CEM leukemia
NCI-H460 lung = system: NCI-H460 lung
MCF7 breast = system: MCF7 breast
K-562 leukemia = system: K-562 leukemia
HOP-62 NSCLC = system: HOP-62 NSCLC
HL-60(TB) leukemia = system: HL-60(TB) leukemia
KM12 colon = system: KM12 colon
A498 renal = system: A498 renal
OVCAR-4 ovarian = system: OVCAR-4 ovarian
NCI-H23 lung = system: NCI-H23 lung
HCT-15 colon = system: HCT-15 colon
NCI-H226 lung = system: NCI-H226 lung
UACC-257 melanoma = system: UACC-257 melanoma
SF-539 CNS = system: SF-539 CNS
OVCAR-5 ovarian = system: OVCAR-5 ovarian
MOLT-4 leukemia = system: MOLT-4 leukemia
LOX IMVI melanoma = system: LOX IMVI melanoma
TK-10 renal = system: TK-10 renal

Compound: CCOc1cc(CC[N+](C)(C)C)c2c(ccc3ccc(OC)c(OC)c32)c1OC
- TGI (786-0 renal): > 100 µM
- TGI (RPMI-8226 leukemia): > 100 µM
- TGI (MDA-N): > 100 µM
- TGI (SK-OV-3 ovarian): > 100 µM
- TGI (MALME-3M melanoma): > 100 µM
- TGI (CAKI-1 renal): > 100 µM
- TGI (IGROV1 ovarian): > 100 µM
- TGI (OVCAR-8 ovarian): > 100 µM
- TGI (UO-31 renal): > 100 µM
- TGI (COLO 205 colon): > 100 µM
- TGI (NCI/ADR-RES ovarian): > 100 µM
- TGI (SF-295 CNS): > 100 µM
- TGI (DU-145 prostate): > 100 µM
- TGI (PC-3 prostate): > 100 µM
- TGI (BT-549 breast): > 100 µM
- TGI (MDA-MB-435): > 100 µM
- TGI (EKVX NSCLC): > 100 µM
- TGI (SR leukemia): > 100 µM
- TGI (SNB-19 CNS): > 100 µM
- TGI (SK-MEL-5 melanoma): > 100 µM
- TGI (SW-620 colon): > 100 µM
- TGI (UACC-62 melanoma): > 100 µM
- TGI (SF-268 CNS): > 100 µM
- TGI (U251 CNS): > 100 µM
- TGI (ACHN renal): > 100 µM
- TGI (SK-MEL-28 melanoma): > 100 µM
- TGI (M14 melanoma): > 100 µM
- TGI (SNB-75 CNS): > 100 µM
- TGI (NCI-H522 lung): > 100 µM
- TGI (HCC-2998 colon): > 100 µM
- TGI (HCT-116 colon): > 100 µM
- TGI (A549 NSCLC): > 100 µM
- TGI (HOP-92 NSCLC): > 100 µM
- TGI (MDA-MB-231 breast): > 100 µM
- TGI (T-47D breast): > 100 µM
- TGI (SN12C renal): > 100 µM
- TGI (OVCAR-3 ovarian): > 100 µM
- TGI (HT29 colon): > 100 µM

Compound: CN1C(=O)C(O)CC1c1ccccc1F (stereo not given)
- TGI (RXF 393 renal): > 100 µM
- TGI (786-0 renal): > 100 µM
- TGI (RPMI-8226 leukemia): > 100 µM
- TGI (MDA-N): > 100 µM
- TGI (MALME-3M melanoma): > 100 µM
- TGI (CAKI-1 renal): > 100 µM
- TGI (IGROV1 ovarian): > 100 µM
- TGI (OVCAR-8 ovarian): > 100 µM
- TGI (UO-31 renal): > 100 µM
- TGI (COLO 205 colon): > 100 µM
- TGI (NCI/ADR-RES ovarian): > 100 µM
- TGI (SF-295 CNS): > 100 µM
- TGI (DU-145 prostate): > 100 µM
- TGI (SK-MEL-2 melanoma): > 100 µM
- TGI (CCRF-CEM leukemia): > 100 µM
- TGI (NCI-H460 lung): > 100 µM
- TGI (MCF7 breast): > 100 µM
- TGI (K-562 leukemia): > 100 µM
- TGI (PC-3 prostate): > 100 µM
- TGI (HOP-62 NSCLC): > 100 µM
- TGI (BT-549 breast): > 100 µM
- TGI (HL-60(TB) leukemia): > 100 µM
- TGI (KM12 colon): > 100 µM
- TGI (MDA-MB-435): > 100 µM
- TGI (EKVX NSCLC): > 100 µM
- TGI (SR leukemia): > 100 µM
- TGI (SNB-19 CNS): > 100 µM
- TGI (SK-MEL-5 melanoma): > 100 µM
- TGI (SW-620 colon): > 100 µM
- TGI (UACC-62 melanoma): > 100 µM
- TGI (U251 CNS): > 100 µM
- TGI (A498 renal): > 100 µM
- TGI (ACHN renal): > 100 µM
- TGI (OVCAR-4 ovarian): > 100 µM
- TGI (SK-MEL-28 melanoma): > 100 µM
- TGI (M14 melanoma): > 100 µM
- TGI (NCI-H23 lung): > 100 µM
- TGI (HCT-15 colon): > 100 µM
- TGI (SNB-75 CNS): > 100 µM
- TGI (NCI-H226 lung): > 100 µM
- TGI (NCI-H522 lung): > 100 µM
- TGI (HCC-2998 colon): > 100 µM
- TGI (UACC-257 melanoma): > 100 µM
- TGI (HCT-116 colon): > 100 µM
- TGI (SF-539 CNS): > 100 µM
- TGI (A549 NSCLC): > 100 µM
- TGI (HOP-92 NSCLC): > 100 µM
- TGI (MDA-MB-231 breast): > 100 µM
- TGI (SN12C renal): > 100 µM
- TGI (OVCAR-5 ovarian): > 100 µM
- TGI (OVCAR-3 ovarian): > 100 µM
- TGI (MOLT-4 leukemia): > 100 µM
- TGI (HT29 colon): > 100 µM
- TGI (LOX IMVI melanoma): > 100 µM

Compound: NN/C(=N\S(=O)(=O)c1cc(S(=O)(=O)c2ccccc2)cs1)Nc1ccc(Cl)cc1
- TGI (RXF 393 renal): 53.9 µM
- TGI (786-0 renal): > 100 µM
- TGI (RPMI-8226 leukemia): > 100 µM
- TGI (MDA-N): 59.2 µM
- TGI (SK-OV-3 ovarian): > 100 µM
- TGI (CAKI-1 renal): > 100 µM
- TGI (IGROV1 ovarian): > 100 µM
- TGI (OVCAR-8 ovarian): > 100 µM
- TGI (UO-31 renal): > 100 µM
- TGI (COLO 205 colon): 43.4 µM
- TGI (NCI/ADR-RES ovarian): > 100 µM
- TGI (SF-295 CNS): 75.5 µM
- TGI (DU-145 prostate): > 100 µM
- TGI (SK-MEL-2 melanoma): 38.2 µM
- TGI (CCRF-CEM leukemia): 69.2 µM
- TGI (NCI-H460 lung): 56.6 µM
- TGI (MCF7 breast): > 100 µM
- TGI (K-562 leukemia): > 100 µM
- TGI (PC-3 prostate): 69.7 µM
- TGI (HOP-62 NSCLC): > 100 µM
- TGI (BT-549 breast): > 100 µM
- TGI (HL-60(TB) leukemia): 32.7 µM
- TGI (KM12 colon): 89.6 µM
- TGI (EKVX NSCLC): 55.7 µM
- TGI (SR leukemia): 48.5 µM
- TGI (TK-10 renal): 81.7 µM
- TGI (SNB-19 CNS): > 100 µM
- TGI (SK-MEL-5 melanoma): 32.3 µM
- TGI (SW-620 colon): > 100 µM
- TGI (UACC-62 melanoma): 43.2 µM
- TGI (SF-268 CNS): 89 µM
- TGI (U251 CNS): 89.6 µM
- TGI (A498 renal): > 100 µM
- TGI (ACHN renal): > 100 µM
- TGI (OVCAR-4 ovarian): 66.5 µM
- TGI (SK-MEL-28 melanoma): > 100 µM
- TGI (M14 melanoma): 48.1 µM
- TGI (NCI-H23 lung): > 100 µM
- TGI (HCT-15 colon): > 100 µM
- TGI (SNB-75 CNS): 67.2 µM
- TGI (NCI-H226 lung): > 100 µM
- TGI (NCI-H522 lung): 41.3 µM
- TGI (UACC-257 melanoma): 47.5 µM
- TGI (HCT-116 colon): 74.6 µM
- TGI (SF-539 CNS): > 100 µM
- TGI (A549 NSCLC): > 100 µM
- TGI (HOP-92 NSCLC): > 100 µM
- TGI (MDA-MB-231 breast): > 100 µM
- TGI (T-47D breast): 55.9 µM
- TGI (SN12C renal): > 100 µM
- TGI (OVCAR-5 ovarian): > 100 µM
- TGI (OVCAR-3 ovarian): 54.2 µM
- TGI (MOLT-4 leukemia): 56.2 µM
- TGI (HT29 colon): > 100 µM
- TGI (LOX IMVI melanoma): 54.9 µM

Compound: Nc1ccc(C2(c3ccc(N)cc3)C3CC4CC(C3)CC2C4)cc1
- TGI (RXF 393 renal): 17.8 µM
- TGI (MDA-N): 37.6 µM
- TGI (SK-OV-3 ovarian): 30 µM
- TGI (CAKI-1 renal): 31.9 µM
- TGI (IGROV1 ovarian): 24.1 µM
- TGI (OVCAR-8 ovarian): 35.5 µM
- TGI (UO-31 renal): 33.9 µM
- TGI (NCI/ADR-RES ovarian): 23.4 µM
- TGI (SF-295 CNS): 20.3 µM
- TGI (SK-MEL-2 melanoma): 34.8 µM
- TGI (CCRF-CEM leukemia): 25.3 µM
- TGI (MCF7 breast): 43.7 µM
- TGI (K-562 leukemia): 47.4 µM
- TGI (PC-3 prostate): 29.3 µM
- TGI (HOP-62 NSCLC): 29.3 µM
- TGI (BT-549 breast): 25.2 µM
- TGI (HL-60(TB) leukemia): 46.6 µM
- TGI (KM12 colon): 25.3 µM
- TGI (MDA-MB-435): 31.5 µM
- TGI (EKVX NSCLC): 32 µM
- TGI (SR leukemia): > 100 µM
- TGI (TK-10 renal): 32.2 µM
- TGI (SNB-19 CNS): 33.3 µM
- TGI (SW-620 colon): 28.8 µM
- TGI (UACC-62 melanoma): 30.6 µM
- TGI (SF-268 CNS): 27.3 µM
- TGI (U251 CNS): 37 µM
- TGI (A498 renal): 41.3 µM
- TGI (ACHN renal): 32.7 µM
- TGI (OVCAR-4 ovarian): 32.5 µM
- TGI (SK-MEL-28 melanoma): > 100 µM
- TGI (M14 melanoma): 29.9 µM
- TGI (NCI-H23 lung): 28.7 µM
- TGI (HCT-15 colon): 37.2 µM
- TGI (NCI-H226 lung): 45.1 µM
- TGI (NCI-H522 lung): 30.5 µM
- TGI (HCC-2998 colon): 41 µM
- TGI (UACC-257 melanoma): 36.2 µM
- TGI (HCT-116 colon): 42.1 µM
- TGI (HOP-92 NSCLC): 28.5 µM
- TGI (MDA-MB-231 breast): 37.5 µM
- TGI (T-47D breast): 42.8 µM
- TGI (SN12C renal): 45.7 µM
- TGI (OVCAR-5 ovarian): 32.7 µM
- TGI (OVCAR-3 ovarian): 25.1 µM
- TGI (MOLT-4 leukemia): 28.2 µM
- TGI (HT29 colon): 26.3 µM
- TGI (LOX IMVI melanoma): 39.7 µM
